Laboratory results: patent US12459951B2, “Compounds that interact with RAS superfamily proteins for treatment of cancers, inflammatory diseases, rasopathies, and fibrotic disease” (SHY Therapeutics, LLC, priority 2022, dated 2025)

What was measured:
MAPK p38 phosphorylation = assay: MAPK p38 Activation Assay (western blot), Panc-1; assay type: cell-based, human; conditions: at 10 μM, Panc-1 pancreatic cancer cell line; starred symbols = activation
Summary of the method: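 Panc-1 cells (KRas G12D) were treated with compound for 6 h at 37 °C, at 10 μM or as serial dilutions for IC50, with 0.3% DMSO. Method 1 used overnight serum-starved cells (0.5% FBS) stimulated with 1.5 ng/ml EGF for 15 min; Method 2 used unstimulated cells in 10% FBS. Phospho-p38 (Thr180/Tyr182) was detected by western blot.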

Erk1/2 phosphorylation = assay: Erk1/2 Phosphorylation Assay (western blot), Panc-1; assay type: cell-based, human; conditions: at 10 μM, * = activation
Summary of the method: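 KRas G12D Panc-1 cells were treated 6 h at 37° C with compound at 10 μM or serial dilutions for IC50 (0.3% DMSO). In method 1, cells were serum-starved overnight (0.5% FBS) and then given 1.5 ng/ml EGF for 15 min. In method 2, cells stayed in 10% FBS without stimulation. Lysate phospho-Erk1/2 (Thr202/Tyr204) was read by western blot.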

Rheb = target: T1, Rheb (Homo sapiens, UniProt Q15382); assay: Rheb GTP Binding Domain Inhibition Assay; conditions: read-out: Rheb: % inh.
T1 construct: made in house
T1 sequence (Q15382 whole entry, the tested form may be a part): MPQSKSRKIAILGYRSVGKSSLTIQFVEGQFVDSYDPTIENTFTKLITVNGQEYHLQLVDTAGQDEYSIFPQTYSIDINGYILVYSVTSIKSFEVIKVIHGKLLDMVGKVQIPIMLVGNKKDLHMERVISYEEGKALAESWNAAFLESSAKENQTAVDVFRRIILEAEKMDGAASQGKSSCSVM
Experimental: Protocol for Cdc42 and Rheb GTP Binding Domain Inhibition Assay
The following method was developed as specific assay for cdc42 and Rheb proteins.
• 25 mM Tris-HCl, pH 7.4 • 27 mM KCl • 137 mM NaCl • 1 mM MgCl2 • 1 mM DTT Buffer-II: • 50 mM Tris-HCl, pH 7.0 • 1 mM MgCl2 • 1 mM DTT
The small GTPases proteins cdc42 and Rheb were expressed as His-tagged proteins. For the assay, the cdc42 and Rheb purified small GTPases proteins were diluted in Buffer-I or Buffer-II to a final concentration of 10-30 μg/mL. 200 μL of each diluted protein was added to a nickel-coated 96-well plate and incubated overnight at […]. Then the protein solution was discarded and 200 μL of Buffer-I or Buffer-II was added to each well in the presence of 1% DMSO. Compounds to be tested were added to the protein-coated wells at final concentration of 20 μM, and incubated for 3 hours at room temperature with and without 10-30 μg/mL of Sos added to the final hour of the incubation. When performing IC50 measurements a serial dilution of all tested concentrations was added. Then Cy3-GTP or Cy5-GTP was added to each well to a final concentration of 100 nM. The labeled GTP was incubated for 45 minutes at room temperature. Following GTP incubation, wells were washed 3× in Buffer-I or Buffer-II and 200 μL of Buffer-I or Buffer-II was added to each well. Following washes, the amount of bound labeled-GTP was measured using a SpectraMax M3 (Molecular Devices).

inhibition at 20 µM (Rheb) [%] | Structure (SMILES) | % inh of MAPK p38 in Panc-1 (MAPK p38 phosphorylation) | % inh of Erk1/2 phosphorylation in Panc-1 (Erk1/2 phosphorylation)
1 to 25 | Cc1c(-c2ccn(C(C)C)n2)cn2nc(-c3nccn3C)nc(Nc3nc(C4CC4)no3)c12 [Compound 70, 3-Cyclopropyl-N-(6-(1-isopropyl-1H-pyrazol-3-yl)-5-methyl-2-(1-methyl-1H-imidazol-2-yl)pyrrolo[2,1-f][1,2,4]triazin-4-yl)-1,2,4-oxadiazol-5-amine] | H* (H* ≥ 100% activation) | B* (26-49% activation)
26 to 49 | COc1cccc(-c2cn3nc(-c4nccn4C)nc(N[C@H]4C[C@H](OC)C4)c3c2-c2ccccc2)c1Cl [Compound 32, 6-(2-Chloro-3-methoxyphenyl)-N-((1r,3r)-3-methoxycyclobutyl)-2-(1-methyl-1H-imidazol-2-yl)-5-phenylpyrrolo[2,1-f][1,2,4]triazin-4-amine] | H (H = 100% inhibition) | D (85-100% inhibition)
26 to 49 | Cc1c(-c2ccn(C(C)C)n2)cn2nc(-c3nccn3C)nc(Nc3ncco3)c12 [Compound 60, N-(6-(1-Isopropyl-1H-pyrazol-3-yl)-5-methyl-2-(1-methyl-1H-imidazol-2-yl)pyrrolo[2,1-f][1,2,4]triazin-4-yl)oxazol-2-amine] | H* (H* ≥ 100% activation) | A (1-25% inhibition)
26 to 49 | COc1cccc(-c2cn3nc(-c4nccn4C)nc(N[C@@H]4CC[C@@H](OC)C4)c3c2-c2ccccc2)c1F (racemic) [Compound 43, rac 6-(2-Fluoro-3-methoxyphenyl)-N-((1R,3R)-3-methoxycyclopentyl)-2-(1-methyl-1H-imidazol-2-yl)-5-phenylpyrrolo[2,1-f][1,2,4]triazin-4-amine] | H* (H* ≥ 100% activation) | D (85-100% inhibition)
50 to 75 | CCn1ccc(-c2cn3nc(-c4nccn4C)nc(Nc4cc(OC)ncn4)c3c2C)n1 [Compound 64, 6-(1-Ethyl-1H-pyrazol-3-yl)-N-(6-methoxypyrimidin-4-yl)-5-methyl-2-(1-methyl-1H-imidazol-2-yl)pyrrolo[2,1-f][1,2,4]triazin-4-amine] | H* (H* ≥ 100% activation) | A (1-25% inhibition)
50 to 75 | COc1cc(Nc2nc(-c3nccn3C)nn3cc(-c4ccn(C(C)C)n4)c(C)c23)n[nH]1 [Compound 51, 6-(1-Isopropyl-1H-pyrazol-3-yl)-N-(5-methoxy-1H-pyrazol-3-yl)-5-methyl-2-(1-methyl-1H-imidazol-2-yl)pyrrolo[2,1-f][1,2,4]triazin-4-amine] | H* (H* ≥ 100% activation) | 0 (0% inhibition)
50 to 75 | COc1cccc(-c2cn3nc(-c4nccn4C)nc(N[C@H]4C[C@H](OC)C4)c3c2-c2ccccn2)c1F [Compound 45, 6-(2-Fluoro-3-methoxyphenyl)-N-((1r,3r)-3-methoxycyclobutyl)-2-(1-methyl-1H-imidazol-2-yl)-5-(pyridin-2-yl)pyrrolo[2,1-f][1,2,4]triazin-4-amine] | H* (H* ≥ 100% activation) | 0 (0% inhibition)
76 to 100 | Cc1c(-c2ccn(C(C)C)n2)cn2nc(-c3nccn3C)nc(Nc3ccccn3)c12 [Compound 57, 6-(1-Isopropyl-1H-pyrazol-3-yl)-5-methyl-2-(1-methyl-1H-imidazol-2-yl)-N-(pyridin-2-yl)pyrrolo[2,1-f][1,2,4]triazin-4-amine] | E* (E* = 1-30% activation) | A* (1-25% activation)
1 to 25 | COc1ccc(Nc2nc(-c3nccn3C)nn3cc(-c4ccn(C(C)C)n4)c(C)c23)cn1 [Compound 71, 6-(1-Isopropyl-1H-pyrazol-3-yl)-N-(6-methoxypyridin-3-yl)-5-methyl-2-(1-methyl-1H-imidazol-2-yl)pyrrolo[2,1-f][1,2,4]triazin-4-amine] | H* (H* ≥ 100% activation) | D* (85-100% activation)
50 to 75 | COc1cccc(-c2cn3nc(-c4nccn4C)nc(N[C@@H]4CC[C@@H](OC)C4)c3c2-c2ccccn2)c1F (racemic) [Compound 46, rac 6-(2-Fluoro-3-methoxyphenyl)-N-((1R,3R)-3-methoxycyclopentyl)-2-(1-methyl-1H-imidazol-2-yl)-5-(pyridin-2-yl)pyrrolo[2,1-f][1,2,4]triazin-4-amine] | H (H = 100% inhibition) | 0 (0% inhibition)
50 to 75 | COc1cnc(Nc2nc(-c3nccn3C)nn3cc(-c4ccn(C(C)C)n4)c(C)c23)nc1 [Compound 56, 6-(1-Isopropyl-1H-pyrazol-3-yl)-N-(5-methoxypyrimidin-2-yl)-5-methyl-2-(1-methyl-1H-imidazol-2-yl)pyrrolo[2,1-f][1,2,4]triazin-4-amine] | H* (H* ≥ 100% activation) | C (50-84% inhibition)
0 | COc1cc(Nc2nc(-c3nccn3C)nn3cc(-c4cccc(OC)n4)c(C)c23)ncn1 [Compound 65, 6-(6-Methoxypyridin-2-yl)-N-(6-methoxypyrimidin-4-yl)-5-methyl-2-(1-methyl-1H-imidazol-2-yl)pyrrolo[2,1-f][1,2,4]triazin-4-amine] | H* (H* ≥ 100% activation) | A (1-25% inhibition)
50 to 75 | COc1cc(Nc2nc(-c3nccn3C)nn3cc(-c4ccn(C)n4)c(C)c23)ncn1 [Compound 63, N-(6-Methoxypyrimidin-4-yl)-5-methyl-2-(1-methyl-1H-imidazol-2-yl)-6-(1-methyl-1H-pyrazol-3-yl)pyrrolo[2,1-f][1,2,4]triazin-4-amine] | H* (H* ≥ 100% activation) | A (1-25% inhibition)
50 to 75 | Cc1c(-c2ccn(C(C)C)n2)cn2nc(-c3nccn3C)nc(Nc3nnco3)c12 [Compound 59, N-(6-(1-Isopropyl-1H-pyrazol-3-yl)-5-methyl-2-(1-methyl-1H-imidazol-2-yl)pyrrolo[2,1-f][1,2,4]triazin-4-yl)-1,3,4-oxadiazol-2-amine] | H* (H* ≥ 100% activation) | C (50-84% inhibition)
0 | Cc1c(-c2ccn(C(C)C)n2)cn2nc(-c3nccn3C)nc(Nc3ccncc3)c12 [Compound 52, 6-(1-Isopropyl-1H-pyrazol-3-yl)-5-methyl-2-(1-methyl-1H-imidazol-2-yl)-N-(pyridin-4-yl)pyrrolo[2,1-f][1,2,4]triazin-4-amine] | F* (F* = 31-74% activation) | 0 (0% inhibition)
76 to 100 | Cc1c(-c2ccn(C(C)C)n2)cn2nc(-c3nccn3C)nc(Nc3ncccn3)c12 [Compound 54, 6-(1-Isopropyl-1H-pyrazol-3-yl)-5-methyl-2-(1-methyl-1H-imidazol-2-yl)-N-(pyrimidin-2-yl)pyrrolo[2,1-f][1,2,4]triazin-4-amine] | H* (H* ≥ 100% activation) | C (50-84% inhibition)
